Read-outs that look alike come from different tables or passages of the source.
Key:
MOLT-4 cells = assay: Cell viability assay, MTS, 48 h, MOLT-4; format: cell-based; conditions: 48 hours, read-out: IC50 (48 hours) MOLT-4
Protocol: (§1) Acute lymphoblastic leukemia cells (MOLT-4 and RS4; 11) or small cell lung cancer (NCI-H146 or simply H146) were incubated with increasing concentrations of Bcl-xL degraders for 48 h. Cell viability was measured by tetrazolium-based MTS assay.

RS4;11 cells = assay: Cell viability assay, MTS, 48 h, RS4;11; format: cell-based; conditions: 48 hours, read-out: IC50 (48 hours) RS4;11
Protocol: as §1

| IC50 (MOLT-4 cells; Homo sapiens, MOLT-4, 48 h) | IC50 (RS4;11 cells; Homo sapiens, RS4-11, 48 h) | SMILES | IC50 (MOLT-4 cells) | IC50 (RS4;11 cells) |
| --- | --- | --- | --- | --- |
| > 0.5 µM | > 0.5 µM | Cc1ncsc1-c1ccc([C@H](C)NC(=O)[C@@H]2C[C@@H](O)CN2C(=O)[C@@H](NC(=O)COCCOCCOCCOCCOCC(=O)NCC2(C)CCC(c3ccc(Cl)cc3)=C(CN3CCN(c4ccc(C(=O)NS(=O)(=O)c5ccc(N[C@H](CCN6CCOCC6)CSc6ccccc6)c(S(=O)(=O)C(F)(F)F)c5)cc4)CC3)C2)C(C)(C)C)cc1 (stereo partly drawn) [degrader #10, N1-((4′-chloro-4-methyl-6-((4-(4-(((4-(((R)-4-morpholino-1-(phenylthio)butan-2-yl)amino)-3-((trifluoromethyl)sulfonyl)phenyl)sulfonyl)carbamoyl)phenyl)piperazin-1-yl)methyl)-2,3,4,5-tetrahydro-[1,1′-biphenyl]-4-yl)methyl)-N17-((S)-1-((2S,4R)-4-hydroxy-2-(((S)-1-(4-(4-methylthiazol-5-yl)phenyl)ethyl)carbamoyl)pyrrolidin-1-yl)-3,3-dimethyl-1-oxobutan-2-yl)-3,6,9,12,15-pentaoxaheptadecanediamide] | – | – |
| 0.15 to 0.5 µM | 0.05 to 0.15 µM | Cc1ncsc1-c1ccc([C@H](C)NC(=O)[C@@H]2C[C@@H](O)CN2C(=O)[C@@H](NC(=O)CCCC(=O)N2CCN(CC3(C)CCC(c4ccc(Cl)cc4)=C(CN4CCN(c5ccc(C(=O)NS(=O)(=O)c6ccc(N[C@H](CCN7CCOCC7)CSc7ccccc7)c(S(=O)(=O)C(F)(F)F)c6)cc5)CC4)C3)CC2)C(C)(C)C)cc1 (stereo partly drawn) [degrader #14, (2S,4R)-1-((2S)-2-(5-(4-((4′-chloro-4-methyl-6-((4-(4-(((4-(((R)-4-morpholino-1-(phenylthio)butan-2-yl)amino)-3-((trifluoromethyl)sulfonyl)phenyl)sulfonyl)carbamoyl)phenyl)piperazin-1-yl)methyl)-2,3,4,5-tetrahydro-[1,1′-biphenyl]-4-yl)methyl)piperazin-1-yl)-5-oxopentanamido)-3,3-dimethylbutanoyl)-4-hydroxy-N—((S)-1-(4-(4-methylthiazol-5-yl)phenyl)ethyl)pyrrolidine-2-carboxamide] | – | – |
| – | – | Cc1ncsc1-c1ccc([C@H](C)NC(=O)[C@@H]2C[C@@H](O)CN2C(=O)[C@@H](NC(=O)C[C@H]2CC[C@H](CC(=O)N3CCC4(CCN(CC5(C)CCC(c6ccc(Cl)cc6)=C(CN6CCN(c7ccc(C(=O)NS(=O)(=O)c8ccc(N[C@H](CCN9CCOCC9)CSc9ccccc9)c(S(=O)(=O)C(F)(F)F)c8)cc7)CC6)C5)CC4)CC3)CC2)C(C)(C)C)cc1 (relative stereo) [degrader #39] | 0.05 to 0.15 µM | < 0.05 µM |
| > 0.5 µM | > 0.5 µM | Cc1ncsc1-c1ccc([C@H](C)NC(=O)[C@@H]2C[C@@H](O)CN2C(=O)[C@@H](NC(=O)COCCOCCOCCOCCOC(=O)N2CCC(c3ccc(Cl)cc3)=C(CN3CCN(c4ccc(C(=O)NS(=O)(=O)c5ccc(N[C@H](CCN6CCOCC6)CSc6ccccc6)c(S(=O)(=O)C(F)(F)F)c5)cc4)CC3)C2)C(C)(C)C)cc1 [compound 87, (S)-16-((2S,4R)-4-hydroxy-2-(((S)-1-(4-(4-methylthiazol-5-yl)phenyl)ethyl)carbamoyl)pyrrolidine-1-carbonyl)-17,17-dimethyl-14-oxo-3,6,9,12-tetraoxa-15-azaoctadecyl 4-(4-chlorophenyl)-5-((4-(4-(((4-(((R)-4-morpholino-1-(phenylthio)butan-2-yl)amino)-3-((trifluoromethyl)sulfonyl)phenyl)sulfonyl)carbamoyl)phenyl)piperazin-1-yl)methyl)-3,6-dihydropyridine-1(2H)-carboxylate] | – | – |
